{"source": "patent US20120034192A1", "about": "“COMPOSITIONS AND METHODS FOR ENHANCING CELL REPROGRAMMING” (priority 2008, published 2012)", "key": {"histone deacetylase": {"tested_on": "histone deacetylase", "details": "cited from earlier work"}, "[1]": {"tested_on": "2nd KSO cells (secondary mouse embryonic fibroblasts)", "assay": "iPS cell colony formation from 2nd KSO secondary MEFs after siRNA transfection", "type": "cell-based", "details": "siRNA 50 nM", "text": "Applicants next sought to determine the effect of inhibiting H3K9 methyltransferases on generation of iPS cells. For some experiments, Applicants used “secondary” mouse embryonic fibroblasts (MEFs) that express murine reprogramming factors Klf4, Sox2, and Oct4 under the control of a doxycycline (“dox”)-inducible promoter. These cells, which are referred to as “2nd KSO” cells for short, reprogram to form iPS cells at a low frequency upon treatment with doxycycline, as described in the literature. The cells contained an Oct4-neo transgene, thereby allowing use of G418 to select for cells that were reprogrammed to pluripotency (as evidenced by expression from the Oct4 promoter).\nApplicants plated 2nd KSO cells into individual wells of 6-well dishes (100,000 cells per well) in mES cell medium (3 ml) on day 0. On day 1, cells in individual wells were transfected with siRNA (Ambion) designed to inhibit expression of a gene encoding one of the following H3K9 methyltransferases: Ehmt1, Ehmt2, Suv39h1, Suv39h2, and Riz1. Two different siRNAs targeted to each of these genes were used (each well received a single siRNA sequence). […] Accordingly, results obtained using this siRNA must be disregarded. […]\nCells were treated with dox to induce expression of the reprogramming factors. […] Colonies were counted on day 20."}, "G9a HMTase": {"biological_target": "T1, G9a HMTase (Homo sapiens, UniProt Q96KQ7)", "T1 sequence (Q96KQ7 1-1210)": "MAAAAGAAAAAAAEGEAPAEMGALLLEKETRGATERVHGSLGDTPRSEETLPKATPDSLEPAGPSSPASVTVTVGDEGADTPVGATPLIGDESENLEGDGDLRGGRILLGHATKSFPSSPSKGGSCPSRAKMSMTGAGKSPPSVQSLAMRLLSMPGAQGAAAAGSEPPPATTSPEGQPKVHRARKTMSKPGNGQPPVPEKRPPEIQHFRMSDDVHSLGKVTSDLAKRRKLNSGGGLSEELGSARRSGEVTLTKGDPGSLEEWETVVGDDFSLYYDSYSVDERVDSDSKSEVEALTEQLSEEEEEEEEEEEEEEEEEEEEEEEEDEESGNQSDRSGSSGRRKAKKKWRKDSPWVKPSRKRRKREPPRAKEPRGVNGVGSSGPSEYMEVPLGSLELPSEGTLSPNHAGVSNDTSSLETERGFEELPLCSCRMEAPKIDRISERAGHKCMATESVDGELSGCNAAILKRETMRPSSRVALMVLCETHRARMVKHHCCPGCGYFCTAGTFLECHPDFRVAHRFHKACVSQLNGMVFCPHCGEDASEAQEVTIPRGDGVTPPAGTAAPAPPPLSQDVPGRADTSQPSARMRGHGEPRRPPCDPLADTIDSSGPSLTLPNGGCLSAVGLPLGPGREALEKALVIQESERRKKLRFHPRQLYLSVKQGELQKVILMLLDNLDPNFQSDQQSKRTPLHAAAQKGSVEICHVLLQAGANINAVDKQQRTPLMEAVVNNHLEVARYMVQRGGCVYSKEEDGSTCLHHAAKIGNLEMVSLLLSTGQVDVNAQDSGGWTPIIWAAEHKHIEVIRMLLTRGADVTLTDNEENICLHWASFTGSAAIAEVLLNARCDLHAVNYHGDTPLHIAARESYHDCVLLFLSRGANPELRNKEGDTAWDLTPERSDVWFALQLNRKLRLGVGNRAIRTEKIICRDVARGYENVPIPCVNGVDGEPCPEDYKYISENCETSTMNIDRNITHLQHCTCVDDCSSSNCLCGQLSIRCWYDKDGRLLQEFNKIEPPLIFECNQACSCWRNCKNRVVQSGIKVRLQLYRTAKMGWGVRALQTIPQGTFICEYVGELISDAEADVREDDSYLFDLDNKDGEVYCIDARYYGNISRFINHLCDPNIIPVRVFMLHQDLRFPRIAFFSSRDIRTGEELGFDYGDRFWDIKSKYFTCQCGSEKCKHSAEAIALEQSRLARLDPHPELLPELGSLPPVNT", "details": "cited from earlier work"}}, "data": [{"molecule": "CC(/C=C/C(=O)NO)=C\\[C@@H](C)C(=O)c1ccc(N(C)C)cc1", "note": "[Trichostatin A, [R-(E,E)]-7-[4-(Dimethylamino)phenyl]-N-hydroxy-4,6-dimethyl-7-oxo-2,4-heptadienamide]", "values": [{"measurement": "concentration inhibiting histone deacetylase", "setting": "histone deacetylase", "value": "nanomolar concentrations"}]}, {"molecule": "s82302: siRNA (Ambion) vs suv39h2; sense GUGUCGAUGUGGACCUGAAtt, antisense UUCAGGUCCACAUCGACACct (sense GUGUCGAUGUGGACCUGAATT; antisense UUCAGGUCCACAUCGACACCT; chemistry not given here)", "values": [{"measurement": "cell growth", "setting": "[1]; 2nd KSO cells", "value": "inhibited cell growth"}]}, {"molecule": "siRNA #2 against SetDB1: siRNA (Ambion) vs ESET/SetDB1; sense GGACGAUGCAGGAGAUAGAtt, antisense UCUAUCUCCUGCAUCGUCCga (sense GGACGAUGCAGGAGAUAGATT; antisense UCUAUCUCCUGCAUCGUCCGA; chemistry not given here)", "values": [{"measurement": "number of iPS cell colonies / reprogramming efficiency", "setting": "[1]; dox, G418 from day 14, colonies counted on day 20", "value": "most striking increase in reprogramming efficiency"}]}, {"molecule": "COc1cc2nc(N3CCCN(C)CC3)nc(NC3CCN(Cc4ccccc4)CC3)c2cc1OC", "note": "[BIX-01294]", "values": [{"measurement": "competition with cofactor S-adenosyl-methionine", "setting": "G9a HMTase", "value": "does not compete with the cofactor S-adenosyl-methionine"}, {"measurement": "selective inhibition of HMTase and generation of H3K9me2", "setting": "G9a HMTase; in vitro", "value": "selectively impairs the G9a HMTase and the generation of H3K9me2 in vitro"}]}]}
